Results from patent US20220033397A1, “PHARMACEUTICAL COMPOUNDS AND THEIR USE AS INHIBITORS OF UBIQUITIN SPECIFIC PROTEASE 19 (USP19)” (ALMAC DISCOVERY LIMITED, priority 2018, published 2022).

molecular target: T1, Full-length USP19 (Homo sapiens, UniProt O94966); assay: USP19 fluorescence polarisation (FP) homogeneous assay with Ubiquitin-Lys-TAMRA substrate; format: biochemical; conditions: 2.5 nM USP19, 30 min pre-incubation, average of at least two duplicate experiments
T1 construct: Full-length USP19 was purchased from Boston Biochem (E-576); purchased Boston Biochem E-576
T1 sequence (O94966 1-1318): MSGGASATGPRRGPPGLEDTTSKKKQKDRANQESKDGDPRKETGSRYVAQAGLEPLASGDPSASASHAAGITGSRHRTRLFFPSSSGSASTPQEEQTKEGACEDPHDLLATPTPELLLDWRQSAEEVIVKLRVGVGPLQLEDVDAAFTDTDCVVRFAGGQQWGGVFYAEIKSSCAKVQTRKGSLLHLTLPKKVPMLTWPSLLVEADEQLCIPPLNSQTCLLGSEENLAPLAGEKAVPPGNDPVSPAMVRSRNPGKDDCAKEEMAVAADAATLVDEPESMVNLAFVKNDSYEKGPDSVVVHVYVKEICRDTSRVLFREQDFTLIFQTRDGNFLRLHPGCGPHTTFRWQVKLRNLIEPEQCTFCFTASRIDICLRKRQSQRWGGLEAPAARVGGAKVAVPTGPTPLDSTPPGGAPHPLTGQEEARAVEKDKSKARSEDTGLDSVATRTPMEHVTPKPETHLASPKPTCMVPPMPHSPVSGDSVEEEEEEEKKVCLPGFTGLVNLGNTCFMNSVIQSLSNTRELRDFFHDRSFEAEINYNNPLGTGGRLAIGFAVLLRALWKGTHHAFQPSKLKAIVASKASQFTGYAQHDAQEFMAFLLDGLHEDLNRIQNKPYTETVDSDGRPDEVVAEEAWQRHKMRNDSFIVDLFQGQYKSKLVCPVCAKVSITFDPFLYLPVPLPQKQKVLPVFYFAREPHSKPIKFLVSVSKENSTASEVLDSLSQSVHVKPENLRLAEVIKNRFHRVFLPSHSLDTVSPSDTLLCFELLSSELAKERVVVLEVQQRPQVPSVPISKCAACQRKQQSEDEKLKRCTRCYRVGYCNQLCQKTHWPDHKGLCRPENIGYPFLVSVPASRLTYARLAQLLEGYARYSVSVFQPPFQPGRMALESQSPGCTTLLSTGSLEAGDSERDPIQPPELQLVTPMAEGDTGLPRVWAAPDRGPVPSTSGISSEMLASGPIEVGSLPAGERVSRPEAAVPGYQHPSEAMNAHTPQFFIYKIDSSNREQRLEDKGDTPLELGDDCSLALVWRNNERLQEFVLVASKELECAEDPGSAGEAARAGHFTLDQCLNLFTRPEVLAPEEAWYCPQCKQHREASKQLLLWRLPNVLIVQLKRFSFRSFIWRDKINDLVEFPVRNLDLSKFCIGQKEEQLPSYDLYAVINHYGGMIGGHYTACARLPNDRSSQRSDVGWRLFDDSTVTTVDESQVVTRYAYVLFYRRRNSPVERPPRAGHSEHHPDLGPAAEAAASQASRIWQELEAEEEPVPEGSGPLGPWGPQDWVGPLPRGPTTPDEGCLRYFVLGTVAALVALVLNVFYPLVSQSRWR
Summary of the method: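 Full-length USP19 preincubated 30 min at RT with inhibitor (200 μM to 2 μM series, 8–18 points) before adding 500 nM Ubiquitin-Lys-TAMRA substrate.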

IC50 | SMILES
5 to 50 µM | CN(C)C(=O)c1cn(CC2(O)CCN(C(=O)N(C)C)CC23CCCC3)c(=O)cc1-c1ccccc1 (stereo not shown) [Example 86, 10-((5-(Dimethylcarbamoyl)-2-oxo-4-phenylpyridin-1(2H)-yl)methyl)-10-hydroxy-N,N-dimethyl-7-azaspiro[4.5]decane-7-carboxamide]
< 0.5 µM | CN(C)C(=O)c1cn(CC2(O)CCN(C(=O)N(C)Cc3ccccc3)CC23CCCC3)c(=O)cc1-c1ccccc1 (stereo not shown) [Example 87, N-Benzyl-10-((5-(dimethylcarbamoyl)-2-oxo-4-phenylpyridin-1(2H)-yl)methyl)-10-hydroxy-N-methyl-7-azaspiro[4.5]decane-7-carboxamide]
< 0.5 µM | CN(C)C(=O)c1cn(CC2(O)CCN(C(=O)N3CCC(C(F)(F)F)C3)CC23CCCC3)c(=O)cc1-c1ccccc1 (stereo not shown) [Example 88, 1-((10-Hydroxy-7-(3-(trifluoromethyl)pyrrolidine-1-carbonyl)-7-azaspiro[4.5]decan-10-yl)methyl)-N,N-dimethyl-6-oxo-4-phenyl-1,6-dihydropyridine-3-carboxamide]
5 to 50 µM | CN(C)C(=O)c1cn(CC2(O)CCN(C(=O)N(C)C3CCCCC3)CC23CCCC3)c(=O)cc1-c1ccccc1 (stereo not shown) [Example 89, N-Cyclohexyl-10-((5-(dimethylcarbamoyl)-2-oxo-4-phenylpyridin-1(2H)-yl)methyl)-10-hydroxy-N-methyl-7-azaspiro[4.5]decane-7-carboxamide]
0.5 to 5 µM | O=C(N1CCC(O)(Cn2ccncc2=O)C2(CCCC2)C1)N1CCOC[C@H]1c1ccccc1 (stereo partly drawn) [Example 90, 1-((10-Hydroxy-7-((R)-3-phenylmorpholine-4-carbonyl)-7-azaspiro[4.5]decan-10-yl)methyl)pyrazin-2(1H)-one]
0.5 to 5 µM | O=C(N1CCC(O)(Cn2ccncc2=O)C2(CCCC2)C1)N1CCNC[C@H]1c1ccccc1 (stereo partly drawn) [Example 91, 1-((10-Hydroxy-7-((R)-2-phenylpiperazine-1-carbonyl)-7-azaspiro[4.5]decan-10-yl)methyl)pyrazin-2(1H)-one]
< 0.5 µM | Cc1cn(CC2(O)CCN(C(=O)N3CCNC[C@H]3c3ccccc3)CC23CCCC3)c(=O)cn1 (stereo partly drawn) [Example 92, 1-((10-Hydroxy-7-((R)-2-phenylpiperazine-1-carbonyl)-7-azaspiro[4.5]decan-10-yl)methyl)-5-methylpyrazin-2(1H)-one]
5 to 50 µM | Cc1nccn(CC2(O)CCN(C(=O)N3CCNC[C@H]3c3ccccc3)CC23CCCC3)c1=O (stereo partly drawn) [Example 93, 1-((10-Hydroxy-7-((R)-2-phenylpiperazine-1-carbonyl)-7-azaspiro[4.5]decan-10-yl)methyl)-3-methylpyrazin-2(1H)-one]
50 to 250 µM | C[C@@H]1CN(CC2(O)CCN(C(=O)[C@H](C)CC(F)(F)F)CC23CCCC3)C(=O)CO1 (stereo partly drawn) [Example 94, (6R)-4-((10-Hydroxy-7-((R)-4,4,4-trifluoro-2-methylbutanoyl)-7-azaspiro[4.5]decan-10-yl)methyl)-6-methylmorpholin-3-one]
50 to 250 µM | C[C@H](CC(F)(F)F)C(=O)N1CCC(O)(CN2CC(C3CC3)OCC2=O)C2(CCCC2)C1 (stereo partly drawn) [Example 95, 6-Cyclopropyl-4-((10-hydroxy-7-((R)-4,4,4-trifluoro-2-methylbutanoyl)-7-azaspiro[4.5]decan-10-yl)methyl)morpholin-3-one]
50 to 250 µM | C[C@H](CC(F)(F)F)C(=O)N1CCC(O)(CN2C(=O)COCC23CC3)C2(CCCC2)C1 (stereo partly drawn) [Example 96, 4-((10-Hydroxy-7-((R)-4,4,4-trifluoro-2-methylbutanoyl)-7-azaspiro[4.5]decan-10-yl)methyl)-7-oxa-4-azaspiro[2.5]octan-5-one]
50 to 250 µM | CC1CN(CC2(O)CCN(C(=O)[C@H](C)CC(F)(F)F)CC23CCCC3)C(=O)CO1 (stereo partly drawn) [Example 97, 4-((10-Hydroxy-7-((R)-4,4,4-trifluoro-2-methylbutanoyl)-7-azaspiro[4.5]decan-10-yl)methyl)-6-methylmorpholin-3-one]
5 to 50 µM | COCC1CCN(CC2(O)CCN(C(=O)[C@H](C)CC(F)(F)F)CC23CCCC3)C(=O)C1 (stereo partly drawn) [Example 98, 1-((10-Hydroxy-7-((R)-4,4,4-trifluoro-2-methylbutanoyl)-7-azaspiro[4.5]decan-10-yl)methyl)-4-(methoxymethyl)piperidin-2-one]
5 to 50 µM | CC1CC(=O)N(CC2(O)CCN(C(=O)[C@H](C)CC(F)(F)F)CC23CCCC3)CC(C)C1 (stereo partly drawn) [Example 99, 1-((10-Hydroxy-7-((R)-4,4,4-trifluoro-2-methylbutanoyl)-7-azaspiro[4.5]decan-10-yl)methyl)-4,6-dimethylazepan-2-one]
5 to 50 µM | CCC1CCN(CC2(O)CCN(C(=O)[C@H](C)CC(F)(F)F)CC23CCCC3)C(=O)C1 (stereo partly drawn) [Example 100, 4-Ethyl-1-((10-hydroxy-7-((R)-4,4,4-trifluoro-2-methylbutanoyl)-7-azaspiro[4.5]decan-10-yl)methyl)piperidin-2-one]
50 to 250 µM | C[C@H](CC(F)(F)F)C(=O)N1CCC(O)(CN2C(=O)CC2c2ccccc2)C2(CCCC2)C1 (stereo partly drawn) [Example 101, 1-((10-Hydroxy-7-((R)-4,4,4-trifluoro-2-methylbutanoyl)-7-azaspiro[4.5]decan-10-yl)methyl)-4-phenylazetidin-2-one]
5 to 50 µM | C[C@H](CC1CCCCC1)C(=O)N1CCC(O)(CN2Cc3cccnc3C2=O)C2(CCCC2)C1 (stereo partly drawn) [Example 102, 6-((7-((R)-3-Cyclohexyl-2-methylpropanoyl)-10-hydroxy-7-azaspiro[4.5]decan-10-yl)methyl)-5,6-dihydro-7H-pyrrolo[3,4-b]pyridin-7-one]
0.5 to 5 µM | C[C@H](CC1CCCCC1)C(=O)N1CCC(O)(CN2Cc3ncccc3C2=O)C2(CCCC2)C1 (stereo partly drawn) [Example 103, 6-((7-((R)-3-Cyclohexyl-2-methylpropanoyl)-10-hydroxy-7-azaspiro[4.5]decan-10-yl)methyl)-6,7-dihydro-5H-pyrrolo[3,4-b]pyridin-5-one]
50 to 250 µM | C[C@H](CC(F)(F)F)C(=O)N1CCC(O)(CN2Cc3ncccc3C2=O)C2(CCCC2)C1 (stereo partly drawn) [Example 104, 6-((10-Hydroxy-7-((R)-4,4,4-trifluoro-2-methylbutanoyl)-7-azaspiro[4.5]decan-10-yl)methyl)-6,7-dihydro-5H-pyrrolo[3,4-b]pyridin-5-one]
50 to 250 µM | C[C@H](CC(F)(F)F)C(=O)N1CCC(O)(CN2Cc3cnccc3C2=O)C2(CCCC2)C1 (stereo partly drawn) [Example 106, 2-((10-Hydroxy-7-((R)-4,4,4-trifluoro-2-methylbutanoyl)-7-azaspiro[4.5]decan-10-yl)methyl)-2,3-dihydro-1H-pyrrolo[3,4-c]pyridin-1-one]
5 to 50 µM | O=C1CN(C(=O)c2ccccc2)CCN1CC1(O)CCN(C(=O)NCc2ccccc2)CC12CCCC2 (stereo not shown) [Example 107, 10-((4-Benzoyl-2-oxopiperazin-1-yl)methyl)-N-benzyl-10-hydroxy-7-azaspiro[4.5]decane-7-carboxamide]
5 to 50 µM | C[C@H](CC(F)(F)F)C(=O)N1CCC(O)(CN2CCN(C(=O)c3ccccc3)CC2=O)C2(CCCC2)C1 (stereo partly drawn) [Example 108, 4-Benzoyl-1-((10-hydroxy-7-((R)-4,4,4-trifluoro-2-methylbutanoyl)-7-azaspiro[4.5]decan-10-yl)methyl)Piperazin-2-one]
< 0.5 µM | O=C1CN(c2ccccc2)CCN1CC1(O)CCN(C(=O)NCc2ccccc2)CC12CCCC2 (stereo not shown) [Example 109, N-Benzyl-10-hydroxy-10-((2-oxo-4-phenylpiperazin-1-yl)methyl)-7-azaspiro[4.5]decane-7-carboxamide]
< 0.5 µM | C[C@H](CC(F)(F)F)C(=O)N1CCC(O)(CN2CCN(c3ccccc3)CC2=O)C2(CCCC2)C1 (stereo partly drawn) [Example 110, 1-((10-Hydroxy-7-((R)-4,4,4-trifluoro-2-methylbutanoyl)-7-azaspiro[4.5]decan-10-yl)methyl)-4-phenylpiperazin-2-one]
5 to 50 µM | CC(=O)N1CCN(CC2(O)CCN(C(=O)NCc3ccccc3)CC23CCCC3)C(=O)C1 (stereo not shown) [Example 111, 10-((4-Acetyl-2-oxopiperazin-1-yl)methyl)-N-benzyl-10-hydroxy-7-azaspiro[4.5]decane-7-carboxamide]
